Experimental data published in US10981906B2, “Substituted pyrrolopyridine JAK inhibitors and methods of making and using the same” (ACLARIS THERAPEUTICS, INC., priority 2017, dated 2021).
Like-named read-outs stand apart in the source and are kept apart here.

Legend:
JAK3 (a.a. 781-1124) = JAK3 (a.a. 781-1124) (Homo sapiens (Human), UniProt P52333); experiment: JAK3 enzyme activity assay (SRCtide phosphorylation, Caliper); assay type: biochemical; conditions: 2.5 nM JAK3, 1 μM SRCtide, 1 uM ATP, 40 minutes; read-out: JAK3 Inhibition IC50
JAK3 (a.a. 781-1124), sequence (P52333 781-1124): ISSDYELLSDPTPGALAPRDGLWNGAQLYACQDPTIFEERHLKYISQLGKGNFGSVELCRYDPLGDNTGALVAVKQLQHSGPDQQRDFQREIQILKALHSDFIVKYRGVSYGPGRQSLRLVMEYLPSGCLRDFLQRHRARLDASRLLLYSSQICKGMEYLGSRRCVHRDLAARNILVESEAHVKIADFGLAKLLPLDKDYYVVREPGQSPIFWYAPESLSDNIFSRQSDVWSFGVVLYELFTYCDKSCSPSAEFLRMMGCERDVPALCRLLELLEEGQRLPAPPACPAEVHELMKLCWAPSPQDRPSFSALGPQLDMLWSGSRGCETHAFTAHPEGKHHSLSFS
Experimental: The activity of JAK3 (a.a. 781-1124, ThermoFisher) was quantified by measuring the phosphorylation of SRCtide (FAM-GEEPLYWSFPAKKK-NH2). Kinase reactions were run in a 384-well Greiner plate with 2% final DMSO concentration under the buffer conditions of 20 mM HEPES, pH 7.5, 10 mM MgCl2, 0.01% BSA, and 0.0005% Tween-20. The kinase reaction components were 2.5 nM JAK3, 1 μM SRCtide peptide and 1 uM ATP. Examples were tested in dose-response starting at 2 μM (11 concentrations, 3-fold serial dilution, duplicate reactions). The reactions were incubated at room temperature for 40 minutes, then stopped by adding a 1:1 volume of 30 mM EDTA in 20 mM HEPES, pH 7.5 (15 mM EDTA final). After the reaction was stopped, the phosphorylated and unphosphorylated peptides were separated and quantified using a Caliper LC3000/EZ-Reader system and HTS Well Analyzer Software (Caliper, A PerkinElmer Company, Hopkinton, Mass.). GraFit (Erithacus Software Ltd., Horley, U.K.) was used to calculate inhibitor potency by fitting dose-response data to the 4-parameter logistical IC50 equation.
(§1) Background signal is defined in the absence of enzyme and uninhibited signal is defined in the presence of vehicle (2% DMSO) alone. Compounds were evaluated in an 11 point dose-response ranging from […] to 0.34 nM. IC50 values of compounds are determined using a 4 parameter logistical fit of emission ratio as a function of the concentration of compound.

JAK1 = JAK1 (Homo sapiens (Human), UniProt P23458); experiment: JAK1 enzyme activity assay (Thermo Fisher SelectScreen Z-lyte); assay type: biochemical; conditions: 1 hour kinase reaction, read-out: JAK1 Inhibition IC50
JAK1, sequence (P23458 whole entry): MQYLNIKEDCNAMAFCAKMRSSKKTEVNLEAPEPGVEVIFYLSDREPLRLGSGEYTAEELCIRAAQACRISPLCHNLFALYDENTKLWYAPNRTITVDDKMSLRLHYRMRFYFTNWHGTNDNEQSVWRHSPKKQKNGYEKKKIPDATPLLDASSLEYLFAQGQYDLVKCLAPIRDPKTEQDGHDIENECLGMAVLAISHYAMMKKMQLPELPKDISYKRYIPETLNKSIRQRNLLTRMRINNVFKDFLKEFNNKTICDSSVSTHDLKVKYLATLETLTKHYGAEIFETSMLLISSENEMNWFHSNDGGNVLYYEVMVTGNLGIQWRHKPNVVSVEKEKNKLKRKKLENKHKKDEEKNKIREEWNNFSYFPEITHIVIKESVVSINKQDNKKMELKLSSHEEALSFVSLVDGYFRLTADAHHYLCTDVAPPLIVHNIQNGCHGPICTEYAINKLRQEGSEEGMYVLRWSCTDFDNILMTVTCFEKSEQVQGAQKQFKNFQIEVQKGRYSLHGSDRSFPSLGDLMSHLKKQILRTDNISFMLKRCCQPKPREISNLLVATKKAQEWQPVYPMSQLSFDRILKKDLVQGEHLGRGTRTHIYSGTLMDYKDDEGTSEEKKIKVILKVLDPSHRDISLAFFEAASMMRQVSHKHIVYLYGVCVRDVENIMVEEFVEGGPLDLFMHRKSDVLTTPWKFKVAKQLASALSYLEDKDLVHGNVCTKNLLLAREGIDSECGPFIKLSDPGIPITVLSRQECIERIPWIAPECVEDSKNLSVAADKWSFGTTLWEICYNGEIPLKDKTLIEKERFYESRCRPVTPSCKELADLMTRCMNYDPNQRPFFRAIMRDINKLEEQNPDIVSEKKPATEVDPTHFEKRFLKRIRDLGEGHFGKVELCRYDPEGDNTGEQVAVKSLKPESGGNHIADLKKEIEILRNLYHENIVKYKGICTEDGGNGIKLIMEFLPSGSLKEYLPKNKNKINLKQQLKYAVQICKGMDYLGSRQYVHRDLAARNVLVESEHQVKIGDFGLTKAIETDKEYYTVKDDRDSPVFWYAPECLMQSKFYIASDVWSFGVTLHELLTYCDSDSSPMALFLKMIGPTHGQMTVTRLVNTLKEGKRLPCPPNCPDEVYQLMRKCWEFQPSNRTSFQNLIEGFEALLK
Experimental: The inhibitory potency of candidate compounds of JAK1 done at Thermo Fisher Scientific in their Selectscreen using a Z-lyte assay. The 2×JAK1/Tyr 06 mixture is prepared in 50 mM HEPES pH 6.5, 0.01% BRIJ-35, 10 mM MgCl2, 1 mM EGTA, 0.02% NaN3. The final 10 μL of the Kinase Reaction consists of 21.2-91.5 ng JAK1 and 2 μM Tyr 06 in 50 mM HEPES pH 7.0, 0.01% BRIJ-35, 10 mM MgCl2, 1 mM EGTA, 0.01% NaN3. After the 1 hour Kinase Reaction incubation, 5 μL of a 1:128 dilution of Development Reagent is added.
as §1

[1] = test system: IFNγ stimulated STAT1 phosphorylation on Tyr701 (JAK1/2); experiment: JAK1/2 cellular target modulation: IFNγ stimulated phospho-STAT1 in PBMC; assay type: cell-based; conditions: IFNγ 10 ng/ml, 1 hour compound preincubation, read-out: Infγ-STAT1 IC50
Description: (§2) Target modulation was based upon the ability of a compound to inhibit JAK isoform specific phosphorylation of selected substrates. IL-2 stimulated STAT5 phosphorylation on Tyr694 was used to assess JAK1/3 compound selectivity. GM-CSF stimulated STAT5 phosphorylation on Tyr694 was used to assess JAK2 compound selectivity. IFNγ stimulated STAT1 phosphorylation on Tyr701 was used to assess JAK1/2 compound selectivity. For all three assays, human PBMC from frozen stocks were thawed, pelleted, resuspended in complete media (90% RPMI, 10% heat inactivated FBS, 10 mM HEPES, 47 μM 2-ME, pen/strep) and placed in wells of a 96 well V-bottom plate at 200,000 per well in 120 μl complete media. Compounds were added as 15 μl per well of 10× working stock solutions in complete media with 1% DMSO (or medium with 1% DMSO for controls) and placed on a plate shaker in a 37° C. incubator with 5% CO2 for 1 hour with gentle shaking (setting of 3). Stimulation used the addition of soluble cytokines. For the JAK1/3 phospho-STAT5 assay, 15 μl of 10× working stock recombinant human IL-2 was added to a final concentration of 25 ng/ml. For the JAK2 phospho-STAT5 assay, 15 μl of 10× working stock recombinant human GM-CSF was added to a final concentration of 5 ng/ml. For the JAK1/2 phospho-STAT1 assay, 15 μl of 10× working stock of recombinant human IFNγ was added to a final concentration of 10 ng/ml. Plates were then placed back on the plate shaker in the incubator for an additional 5, 5 and 10 minutes respectively upon which the plates were removed from the incubator, sealed with a plate sealer and the cells pelleted at 400×g for 5 minutes. After pelleting, the media was removed by aspiration and the cells were lysed in ELISA specific cell lysis buffer. The levels of phospho-STAT5 were determined using a Phospho (Tyr694)/Total STAT5a,b Whole Cell Lysate kit from Meso Scale Discovery. Levels of phospho-STAT1 were determined using a CST-PathScan Phospho-STAT1 (Tyr701) Sandwich ELISA kit.

[2] = test system: IL-2 stimulated STAT5 phosphorylation on Tyr694 (JAK1/3); experiment: JAK1/3 cellular target modulation: IL-2 stimulated phospho-STAT5 in PBMC; assay type: cell-based; conditions: IL-2 25 ng/ml, 1 hour compound preincubation, read-out: IL2-STAT5 Inhibition IC50
Description: as §2

Compound | IC50 (JAK3 (a.a. 781-1124)) | IC50 (JAK1) | IC50 ([1]; Homo sapiens, PBMC) | IC50 ([2]; Homo sapiens, PBMC) | IC50 ([1]; human PBMC) | IC50 ([2]; human PBMC)
CCOC(=O)c1cnc2[nH]ccc2c1NC1CCC(CCC#N)C1 (single isomer, unassigned; stereoisomer 1) [Example 154, Ethyl 4-((3-(2-cyanoethyl)cyclopentyl)amino)-1H-pyrrolo[2,3-b]pyridine-5-carboxylate, single stereoisomer 1] | 10 to 100 nM | 100 to 1000 nM | > 1000 nM | 100 to 1000 nM | – | –
CCOC(=O)c1cnc2[nH]ccc2c1NC1CCC(CCC#N)C1 (single isomer, unassigned; stereoisomer 2) [Example 155, Ethyl 4-((3-(2-cyanoethyl)cyclopentyl)amino)-1H-pyrrolo[2,3-b]pyridine-5-carboxylate, single stereoisomer 2] | 10 to 100 nM | 100 to 1000 nM | – | – | > 1000 nM | 100 to 1000 nM
CCOC(=O)c1cnc2[nH]ccc2c1N(C)[C@H]1CN(C(=O)CC#N)CC[C@H]1C [Example 1, ethyl 4-(((3R,4R)-1-(2-cyanoacetyl)-4-methylpiperidin-3-yl)(methyl)amino)-1H-pyrrolo[2,3-b]pyridine-5-carboxylate] | 10 to 100 nM | 10 to 100 nM | > 1000 nM | 100 to 1000 nM | – | –
CCOC(=O)c1cnc2[nH]ccc2c1N[C@H]1CN(C(=O)CC#N)CC[C@H]1C [Example 3, ethyl 4-(((3R,4R)-1-(2-cyanoacetyl)-4-methylpiperidin-3-yl)amino)-1H-pyrrolo[2,3-b]pyridine-5-carboxylate] | ≤ 10 nM | ≤ 10 nM | 100 to 1000 nM | ≤ 100 nM | – | –
COCCOC(=O)c1cnc2[nH]ccc2c1N[C@H]1CN(C(=O)CC#N)CC[C@H]1C [Example 21, 2-methoxyethyl 4-(((3R,4R)-1-(2-cyanoacetyl)-4-methylpiperidin-3-yl)amino)-1H-pyrrolo[2,3-b]pyridine-5-carboxylate] | ≤ 10 nM | 10 to 100 nM | > 1000 nM | 100 to 1000 nM | – | –
CCOC(=O)c1cnc2[nH]ccc2c1N[C@H]1CN(CCC#N)CC[C@H]1C [Example 24, ethyl 4-(((3R,4R)-1-(2-cyanoethyl)-4-methylpiperidin-3-yl)amino)-1H-pyrrolo[2,3-b]pyridine-5-carboxylate] | ≤ 10 nM | ≤ 10 nM | 100 to 1000 nM | ≤ 100 nM | – | –
C=CC(=O)N1CCC[C@@H](Nc2c(C(=O)OCC)cnc3[nH]ccc23)C1 [Example 34, ethyl (R)-4-((1-acryloylpiperidin-3-yl)amino)-1H-pyrrolo[2,3-b]pyridine-5-carboxylate] | 100 to 1000 nM | 100 to 1000 nM | > 1000 nM | 100 to 1000 nM | – | –
CCOC(=O)c1cnc2[nH]ccc2c1N[C@H]1CC[C@H](CS(=O)(=O)NC)CC1 [Example 92, ethyl 4-(((1r,4r)-4-((N-methylsulfamoyl)methyl)cyclohexyl)amino)-1H-pyrrolo[2,3-b]pyridine-5-carboxylate] | ≤ 10 nM | ≤ 10 nM | 100 to 1000 nM | ≤ 100 nM | – | –
CCOC(=O)c1cnc2[nH]ccc2c1NC1CCC(OCCC#N)C1 (stereo not drawn) [Example 113, ethyl 4-((3-(2-cyanoethoxy)cyclopentyl)amino)-1H-pyrrolo[2,3-b]pyridine-5-carboxylate] | 10 to 100 nM | 10 to 100 nM | > 1000 nM | 100 to 1000 nM | – | –
CCOC(=O)c1cnc2[nH]ccc2c1N[C@@H]1CCCN(C(=O)CC#N)C1 [Example 117, ethyl (R)-4-((1-(2-cyanoacetyl)piperidin-3-yl)amino)-1H-pyrrolo[2,3-b]pyridine-5-carboxylate] | ≤ 10 nM | ≤ 10 nM | ≤ 100 nM | ≤ 100 nM | – | –
COC(=O)c1cnc2[nH]ccc2c1N[C@H]1CN(C(=O)CC#N)CC[C@H]1C [Example 118, methyl 4-(((3R,4R)-1-(2-cyanoacetyl)-4-methylpiperidin-3-yl)amino)-1H-pyrrolo[2,3-b]pyridine-5-carboxylate] | 10 to 100 nM | ≤ 10 nM | 100 to 1000 nM | ≤ 100 nM | – | –
CCOC(=O)c1cnc2[nH]ccc2c1N[C@@H]1CCCN(CCC#N)C1 [Example 123, ethyl (R)-4-((1-(2-cyanoethyl)piperidin-3-yl)amino)-1H-pyrrolo[2,3-b]pyridine-5-carboxylate] | ≤ 10 nM | ≤ 10 nM | 100 to 1000 nM | ≤ 100 nM | – | –
CC(C)OC(=O)c1cnc2[nH]ccc2c1N[C@H]1CN(C(=O)CC#N)CC[C@H]1C [Example 124, isopropyl 4-(((3R,4R)-1-(2-cyanoacetyl)-4-methylpiperidin-3-yl)amino)-1H-pyrrolo[2,3-b]pyridine-5-carboxylate] | 10 to 100 nM | 10 to 100 nM | > 1000 nM | 100 to 1000 nM | – | –
CCCOC(=O)c1cnc2[nH]ccc2c1N[C@H]1CN(C(=O)CC#N)CC[C@H]1C [Example 125, propyl 4-(((3R,4R)-1-(2-cyanoacetyl)-4-methylpiperidin-3-yl)amino)-1H-pyrrolo[2,3-b]pyridine-5-carboxylate] | ≤ 10 nM | ≤ 10 nM | 100 to 1000 nM | ≤ 100 nM | – | –
CCOC(=O)c1cnc2[nH]ccc2c1N[C@H]1CN(C(=O)C2(C#N)CC2)CC[C@H]1C [Example 126, ethyl 4-(((3R,4R)-1-(1-cyanocyclopropane-1-carbonyl)-4-methylpiperidin-3-yl)amino)-1H-pyrrolo[2,3-b]pyridine-5-carboxylate] | 10 to 100 nM | 10 to 100 nM | > 1000 nM | 100 to 1000 nM | – | –
CCOC(=O)c1cnc2[nH]ccc2c1N[C@H]1CN(C(=O)C(C)C#N)CC[C@H]1C (stereo partly drawn) [Example 127, ethyl 4-(((3R,4R)-1-(2-cyanopropanoyl)-4-methylpiperidin-3-yl)amino)-1H-pyrrolo[2,3-b]pyridine-5-carboxylate] | 10 to 100 nM | ≤ 10 nM | 100 to 1000 nM | ≤ 100 nM | – | –
CCOC(=O)c1cnc2[nH]ccc2c1N[C@@H]1CCCN(C(=O)C2(C#N)CC2)C1 [Example 128, ethyl (R)-4-((1-(1-cyanocyclopropane-1-carbonyl)piperidin-3-yl)amino)-1H-pyrrolo[2,3-b]pyridine-5-carboxylate] | ≤ 10 nM | 10 to 100 nM | > 1000 nM | ≤ 100 nM | – | –
CCOC(=O)c1cnc2[nH]ccc2c1N[C@@H]1CCCN(C(=O)C(C)C#N)C1 (stereo partly drawn) [Example 129, ethyl 4-(((3R)-1-(2-cyanopropanoyl)piperidin-3-yl)amino)-1H-pyrrolo[2,3-b]pyridine-5-carboxylate] | ≤ 10 nM | ≤ 10 nM | 100 to 1000 nM | ≤ 100 nM | – | –
